From article PMC11984586, “A novel spider toxin as a selective antagonist of the Kv1 subfamily of voltage-gated potassium channels through gating modulation” (The Journal of Biological Chemistry, 2025)
Like-named read-outs stand apart in the source and are kept apart here. Bridge positions count the residues as written; N and C are the ends. Peptide text beside a SMILES is read from it.

What was measured:
hKv1.3 = target: T1, hKv1.3 (Homo sapiens, UniProt P22001); test: Whole-cell patch clamp, Kv1.3 ionic current in CHO-K1 cells; assay type: cell-based; details: mean ± SD; for IC50: 500 ms depolarization to +30 mV from −80 mV holding, CHO-K1, room temperature
T1 construct: expressed in transfected cells; host or cells: CHO-K1
Method: The cDNA of hKv1.1, hKv1.2, hKv1.3, rKv1.4, hKv1.5, mKv1.6, and hKv1.7 were subcloned into mammalian expression vectors pcDNA3.1 or pCMV-blank vectors, as well as other plasmids described previously ([35]). Channel mutants were generated by site-directed mutations. Briefly, the parental channel plasmid was amplified using a pair of oppositely directed primers harboring the designed mutation site, with KOD Fx (TOYOBO Co, Ltd). The resulting PCR mix was treated with FastDigest DpnI (Thermo Fisher Scientific) to remove the methylated template. Ten microliters of the digested product was then used to transform 100 μl E. coli DH5α competent cells. Transformants were randomly picked and sequenced to confirm the presence of the intended mutation.
CHO-K1 cells were selected for expressing Kv channels due to their lack of endogenous Kv channels, while HEK293 or ND7/23 cells were used for Nav and Cav channel expression. CHO-K1 cells were cultured in a Dulbecco's modified Eagle's medium/Ham's F-12 nutrient mixture (DMEM-F12) medium, and HEK293T and ND7/23 cells in DMEM medium, all supplemented with 10% fetal bovine serum and 1% penicillin-streptomycin (all from Gibco, Thermo Fisher Scientific, Inc) under standard conditions (37 °C, 5% CO2, and saturated humidity). These cell lines were purchased from Stem Cell Bank, Chinese Academy of Sciences. Channel plasmids were cotransfected with pEGFP-N1 (encoding GFP) into the respective cells using lipofectamine 2000, following the manufacturer's instructions (Invitrogen, Thermo Fisher Scientific, Inc.). Nav1.9-GFP plasmid was transfected into ND7/23 using the X-tremeGENE HP DNA Transfection Reagent (Roche). After 4 to 6 h transfection, cells were seeded onto poly-lysine–coated coverslips, and 24 to 36 h later, transfected cells were ready for patch-clamp analysis.
Patch clamp experiments were conducted using an electrophysiology platform comprising a MultiClamp 700B amplifier and an Axon Digidata 1550 AD/DA convertor (Axon Instruments). Data acquisition was performed with pClamp 10.5 software (Axon Instruments). All experiments were performed at room temperature.
For Kv current recordings, the bath solution contained (in mM) the following: 140 NaCl, 5 KCl, 1 MgCl2, 2 CaCl2, 10 glucose, and 10 Hepes (pH 7.3, adjusted with NaOH), and the pipette solution contained (in mM) the following: 140 KCl, 2.5 MgCl2, 11 EGTA, and 10 Hepes (pH 7.3, adjusted with KOH). Series resistance was maintained below 10 MΩ and compensated to 80%. Concentration–response curves were fitted by the Hill equation to determine the toxin's potency. Whole cell conductance (G) at each depolarizing voltage (V) was determined using the equation: G = I/(V−Vrev), where I is the current amplitude, and Vrev is the reversal potential. The reversal potential for K^+ current was estimated to be −85.6 mV using the Nernst equation. G-V curves were obtained by plotting the normalized conductance as a function of V and fitted by the Boltzmann equation: y = 1/(1+ exp((Va-V)/k)), which Va is the midpoint voltage, V is the test potential, and k is the slope factor. The steady-state fast inactivation of Kv1.3 was measured using a two-pulses protocol. The cell was held at −120 mV, and a train of conditional voltages (−120–40 mV in 10 mV increments, 60 s) were applied to induce channel inactivation, followed by a +60 mV test pulse (300 ms) to assess the proportion of noninactivated channels. The sweep interval was set to 30 s. Currents at the test pulse (I) were normalized to the maximum value (Imax) and plotted as a function of the conditional voltage (V). The curve was fitted by the Boltzmann equation: I/Imax = A+(1 − A)/(1+exp ((V−Vh)/K)), where Vh is the half-maximum inactivation voltage, A represents the minimum channel availability, and k is the slope factor.

[1] = target: T2, Kv1.3/ET (Kv1.3/Q355 E_M358T) (Homo sapiens, UniProt P22001, M358T/Q355E); test: Whole-cell patch clamp, Kv1.3 double mutant; assay type: cell-based; details: +30 mV, mean ± SD, n = 3–5
T2 construct: expressed in transfected cells; host or cells: CHO-K1
Source text: In contrast, differences at positions 347, 355, and 358 between Kv1.3 and Kv1.1 prompted further analysis. To explore whether these discrepancies influence peptide-mediated inhibition, we substituted these residues in Kv1.3 with their homologous counterparts in Kv1.1 and assessed the MrVIII's inhibitory efficacy on these single-point mutants. […] To further investigate this, we introduced double adjacent mutations around Q355 and M358 in Kv1.3 to explore potential synergistic effects on MrVIII's inhibitory activity. […]
CHO-K1 cells were selected for expressing Kv channels due to their lack of endogenous Kv channels, while HEK293 or ND7/23 cells were used for Nav and Cav channel expression. […] After 4 to 6 h transfection, cells were seeded onto poly-lysine–coated coverslips, and 24 to 36 h later, transfected cells were ready for patch-clamp analysis. […]
For Kv current recordings, the bath solution contained (in mM) the following: 140 NaCl, 5 KCl, 1 MgCl2, 2 CaCl2, 10 glucose, and 10 Hepes (pH 7.3, adjusted with NaOH), and the pipette solution contained (in mM) the following: 140 KCl, 2.5 MgCl2, 11 EGTA, and 10 Hepes (pH 7.3, adjusted with KOH). […] Whole cell conductance (G) at each depolarizing voltage (V) was determined using the equation: G = I/(V−Vrev), where I is the current amplitude, and Vrev is the reversal potential. […]

T1 sequence (P22001 whole entry): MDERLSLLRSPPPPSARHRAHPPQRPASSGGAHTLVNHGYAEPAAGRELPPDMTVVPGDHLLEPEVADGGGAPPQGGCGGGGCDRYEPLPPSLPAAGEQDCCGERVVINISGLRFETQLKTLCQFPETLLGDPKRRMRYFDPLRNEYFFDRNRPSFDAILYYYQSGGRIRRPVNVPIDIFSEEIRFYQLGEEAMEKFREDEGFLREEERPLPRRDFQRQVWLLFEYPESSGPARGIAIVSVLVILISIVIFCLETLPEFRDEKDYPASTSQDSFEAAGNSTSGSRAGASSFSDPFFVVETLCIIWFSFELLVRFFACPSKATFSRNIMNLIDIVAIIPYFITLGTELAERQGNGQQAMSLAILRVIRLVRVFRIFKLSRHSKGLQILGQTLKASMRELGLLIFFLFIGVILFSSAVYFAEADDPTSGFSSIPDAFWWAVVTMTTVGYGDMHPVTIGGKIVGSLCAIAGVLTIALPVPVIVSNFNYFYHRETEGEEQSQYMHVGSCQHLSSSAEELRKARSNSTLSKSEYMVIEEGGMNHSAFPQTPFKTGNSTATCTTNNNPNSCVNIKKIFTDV
T2 sequence (P22001 whole entry Q355E/M358T): as the sequence (P22001 whole entry) above, with Q355E, M358T counted along it

## CC[C@H](C)[C@@H]1NC(=O)[C@H](Cc2ccc(O)cc2)NC(=O)[C@H](CCC(N)=O)NC(=O)[C@@H]2CCCN2C(=O)[C@@H]2CSSC[C@H](NC(=O)[C@H](C)NC(=O)[C@H](CO)NC(=O)[C@H](CCC(=O)O)NC(=O)[C@H](CCC(=O)O)NC(=O)[C@@H](N)[C@@H](C)O)C(=O)NCC(=O)NCC(=O)N[C@@H](Cc3ccccc3)C(=O)N[C@@H](CC(N)=O)C(=O)N[C@@H](C)C(=O)N[C@@H](CCCNC(=N)N)C(=O)N[C@H]3CSSC[C@H](NC1=O)C(=O)N[C@@H](CCCCN)C(=O)NCC(=O)N[C@@H](Cc1c[nH]c4ccccc14)C(=O)N[C@@H](CCCNC(=N)N)C(=O)N[C@@H]([C@@H](C)O)C(=O)N[C@@H](CCCCN)C(=O)N[C@@H](CCCNC(=N)N)C(=O)N[C@H](C(=O)N[C@@H](CC(C)C)C(=O)N[C@@H](CC(N)=O)C(=O)N1CCC[C@H]1C(=O)O)CSSC[C@H](NC(=O)[C@H](CCCCN)NC(=O)[C@H](Cc1c[nH]cn1)NC(=O)[C@H](CC(C)C)NC(=O)[C@@H]1CCCN1C3=O)C(=O)N2 [MrVIII] (H-TEESACGGFNARCPLHKCCPQYICKGWRTKRCLNP-OH; disulfide 6-19, 13-24, 18-32; N-terminus and C-terminus assumed)
hKv1.3; 5 nM MrVIII, control Va = −26.4 ± 4.6 mV, Boltzmann fit
  Va of G-V curve of Kv1.3 after toxin: −27.7 ± 5.1 mV
hKv1.3; 5 nM MrVIII, control Vh = −42.2 ± 4.7 mV, two-pulse protocol
  Vh of steady-state inactivation of Kv1.3 after toxin: −42.5 ± 2.4 mV
hKv1.3; 10 nM MrVIII, n = 6
  time constant for toxin association, Kv1.3: 5.4 ± 1.2 s
hKv1.3; native toxin, n = 7, read-out: IC50, inhibition of Kv1.3 peak current
  IC50: 4.4 ± 1.1 nM
hKv1.3; synthetic refolded toxin, n = 7, read-out: IC50, inhibition of Kv1.3 current
  IC50: 4.8 ± 1.6 nM
hKv1.3; washout with bath solution after 10 nM MrVIII, n = 6
  time constant for dissociation from Kv1.3: 33.4 ± 8.3 s
[1]; current at 50 ms
  IC50: 122 ± 24.5 nM
[1]; current at 495 ms
  inhi%(495 ms), Kv1.3/ET current: −35.4 ± 20.7%
